The experiment concerns MCH receptors. Kind of experiment: MCH receptor activity class (method not given).
[1] abbreviates: class by percent of control at 10^-7 M or IC50.
The mark [2] stands for this setting: activity class per percent of control at 10^-7 M or IC50.
Where [3] appears, read: class 1-3 by percent of control at 10^-7 M or IC50.
The mark [4] stands for this setting: MCH receptor, class by percent of control at 10^-7 M or IC50.
[5] abbreviates: class by percent of control at 10^−7 M or IC50.

Take `COc1cc(C(=O)N[C@H]2CC[C@@H](Nc3nc4c(c(N(C)C)n3)CCCC4)CC2)ccc1[N+](=O)[O-]` [compound 966]: the class under setting [1] is given as 1 (Class 1: The value of percent of control at 10^−7 M was less than 40% or the value of IC50 was less than 50 nM.).
For the compound `CN(C)c1nc(N[C@H]2CC[C@@H](NC(=O)Nc3cccc(C(F)(F)F)c3F)CC2)nc2c1CCCC2` [compound 1858], the class under setting [1] is on record as 3 (Class 3 The value of percent of control at 10^−7 M was more than 60% or the value of IC50 was more than 200 nM.).
Turning to `CN(C)c1cc(N[C@H]2CC[C@@H](NCc3coc4ccc(Cl)cc4c3=O)CC2)nc2ccccc12` [compound 1113], the class under setting [2] is on record as 3 (Class 3 The value of percent of control at 10^−7 M was more than 60% or the value of IC50 was more than 200 nM.).
On to `Cc1ccc(C(=O)NC[C@H]2CC[C@@H](Nc3nccc(N(C)C)n3)CC2)cc1` [compound 396], for which the class under setting [1] is reported as 3 (Class 3 The value of percent of control at 10^−7 M was more than 60% or the value of IC50 was more than 200 nM.).
In the case of `COc1ccc(Oc2ccc([N+](=O)[O-])cc2C(=O)N[C@H]2CC[C@@H](Nc3nc4c(c(N(C)C)n3)CCCC4)CC2)cc1` [compound 544], the class under setting [3] is 1 (Class 1: The value of percent of control at 10^−7 M was less than 40% or the value of IC50 was less than 50 nM.).
On to `Cc1cc(C)c(NC(=O)NC[C@H]2CC[C@@H](Nc3cc(N(C)C)c4ccccc4n3)CC2)c(C)c1` [compound 2367, N-[(cis-4-{[4-(dimethylamino)quinolin-2-yl]amino}cyclohexyl)methyl]-N′-mesitylurea], for which the class (MCH receptor activity class 1-3 (percent of control at 10^-7 M or IC50)) is on record as 2 (Class 2: The value of percent of control at 10^−7 M was from 40% to 60% or the value of IC′50 was from 50 nM to 200 nM.).
In the case of `CN(C)c1nc(N[C@H]2CC[C@@H](CNCc3ccc(OCc4ccc(Br)cc4)cc3)CC2)nc2c1CCCC2` [compound 1445], the class under setting [1] is listed as 3 (Class 3 The value of percent of control at 10^−7 M was more than 60% or the value of IC50 was more than 200 nM.).
Consider `C[C@H](NC(=O)c1ccccc1C(=O)N[C@H]1CC[C@@H](Nc2nc3c(c(N(C)C)n2)CCCC3)CC1)c1ccccc1` [compound 1034], for which, under setting [2], the class was 3 (Class 3 The value of percent of control at 10^−7 M was more than 60% or the value of IC50 was more than 200 nM.).
As for `Cc1ccc(C(=O)NC[C@H]2CC[C@@H](Nc3cc(N(C)C)c4ccccc4n3)CC2)cc1[N+](=O)[O-]` [compound 170, N-[(cis-4-{[4-(dimethylamino)quinolin-2-yl]amino}cyclohexyl)methyl]-4-methyl-3-nitrobenzamide], the class under setting [4] is recorded as 3 (Class 3 The value of percent of control at 10^−7 M was more than 60% or the value of IC50 was more than 200 nM.).
On the same count and under the same terms, the result for `CN(C)c1cc(N[C@H]2CC[C@@H](NC(=O)C(C)(C)Oc3ccc(Cl)cc3)CC2)nc2ccccc12` [compound 139] reads 3 (Class 3 The value of percent of control at 10^−7 M was more than 60% or the value of IC50 was more than 200 nM.).
Turning to `Cc1cc(C(=O)NC[C@H]2CC[C@@H](Nc3cc(N(C)C)c4ccccc4n3)CC2)nn1C(C)(C)C` [compound 217], under setting [1], the class is 3 (Class 3 The value of percent of control at 10^−7 M was more than 60% or the value of IC50 was more than 200 nM.).
On the same count and under the same terms, next, `CN(C)c1nc(N[C@H]2CC[C@@H](NC(=O)Nc3cc(C(F)(F)F)ccc3Cl)CC2)nc2c1CCCC2` [compound 1855]: 3 (Class 3 The value of percent of control at 10^−7 M was more than 60% or the value of IC50 was more than 200 nM.).
Still for that read-out and setting: the result for `COc1cc(C)c(CNC[C@H]2CC[C@@H](Nc3nc4c(c(N(C)C)n3)CCCC4)CC2)cc1C` [compound 1437] reads 2 (Class 2: The value of percent of control at 10^−7 M was from 40% to 60% or the value of IC′50 was from 50 nM to 200 nM.); that for `Cc1cc(Br)ccc1NC(=O)N[C@H]1CC[C@@H](Nc2nccc(N(C)C)n2)CC1` [compound 2249, N-(4-bromo-2-methylphenyl)-N′-(cis-4-{[4-(dimethylamino)pyrimidin-2-yl]amino}cyclohexyl)urea], 2 (Class 2: The value of percent of control at 10^−7 M was from 40% to 60% or the value of IC′50 was from 50 nM to 200 nM.).
Same read-out and setting: next, `COc1ccc2[nH]cc(CNC[C@H]3CC[C@@H](Nc4nc5c(c(N(C)C)n4)CCCC5)CC3)c2c1` [compound 1369]: 1 (Class 1: The value of percent of control at 10^−7 M was less than 40% or the value of IC50 was less than 50 nM.).
`CN(C)c1nc(N[C@H]2CC[C@@H](NC(=O)c3cccc(-n4c(-c5ccc(Br)cc5)cc5c4CC(C)(C)CC5=O)c3)CC2)nc2c1CCCC2` [compound 995]: the class under setting [2] is recorded as 3 (Class 3 The value of percent of control at 10^−7 M was more than 60% or the value of IC50 was more than 200 nM.).
`COC(=O)[C@H](CCSC)NC(=O)N[C@H]1CC[C@@H](Nc2cc(N(C)C)c3ccccc3n2)CC1` (relative stereo) [compound 2129]: under setting [1], the class is recorded as 3 (Class 3 The value of percent of control at 10^−7 M was more than 60% or the value of IC50 was more than 200 nM.).
`CN(C)c1ccnc(N[C@H]2CC[C@@H](CNC(=O)c3ccc4nonc4c3)CC2)n1` [compound 368]: under setting [1], the class is 3 (Class 3 The value of percent of control at 10^−7 M was more than 60% or the value of IC50 was more than 200 nM.).
As for `CC(NC(=O)N[C@H]1CC[C@@H](Nc2cc(N(C)C)c3ccccc3n2)CC1)c1ccc(Br)cc1` (relative stereo) [compound 2158], under setting [1], the class is listed as 3 (Class 3 The value of percent of control at 10^−7 M was more than 60% or the value of IC50 was more than 200 nM.).
Same read-out and setting: next, `CN(C)c1ccnc(N[C@H]2CC[C@@H](NC(=O)COc3ccccc3)CC2)n1` [compound 330, N-(cis-4-{[4-(dimethylamino)pyrimidin-2-yl]amino}cyclohexyl)-2-phenoxyacetamide]: 2 (Class 2: The value of percent of control at 10^−7 M was from 40% to 60% or the value of IC′50 was from 50 nM to 200 nM.).
As for `Cc1cc(C(=O)N[C@H]2CC[C@@H](Nc3ncc(C)c(N(C)C)n3)CC2)ccc1Cl` [compound 2935], the class under setting [5] is 1 (Class 1: The value of percent of control at 10^−7 M was less than 40% or the value of IC50 was less than 50 nM.).
With `CCN(CC)CCCNC(=S)N[C@H]1CC[C@@H](Nc2nc3c(c(N(C)C)n2)CCCC3)CC1` [compound 2073], the class under setting [4] is recorded as 3 (Class 3 The value of percent of control at 10^−7 M was more than 60% or the value of IC50 was more than 200 nM.).
Consider `Cc1ccc(C(=O)N[C@H]2CC[C@@H](Nc3nc4c(c(N(C)C)n3)CCCC4)CC2)c(F)c1F` [compound 496], for which the class under setting [3] was 3 (Class 3 The value of percent of control at 10^−7 M was more than 60% or the value of IC50 was more than 200 nM.).
Take `CN(C)c1nc(N[C@H]2CC[C@@H](NC(=O)c3ccccc3Sc3ccccc3C#N)CC2)nc2c1CCCC2` [compound 1011]: the class under setting [2] was 3 (Class 3 The value of percent of control at 10^−7 M was more than 60% or the value of IC50 was more than 200 nM.).
On to `Cc1ccc(CNC[C@H]2CC[C@@H](Nc3cc(N(C)C)c4ccccc4n3)CC2)cc1I` [compound 1476], for which the class under setting [1] is 3 (Class 3 The value of percent of control at 10^−7 M was more than 60% or the value of IC50 was more than 200 nM.).
As to `CN(C)c1cc(N[C@H]2CC[C@@H](NC(=O)c3cc(F)c(Cl)cc3Cl)CC2)nc2ccccc12` [compound 39], the class under setting [4] is 3 (Class 3 The value of percent of control at 10^−7 M was more than 60% or the value of IC50 was more than 200 nM.).
`CCOc1cc(OCC)cc(C(=O)N[C@H]2CC[C@@H](Nc3ncc(C)c(N(C)C)n3)CC2)c1` [compound 2929, N-(cis-4-{[4-(dimethylamino)-5-methylpyrimidin-2-yl]amino}cyclohexyl)-3,5-diethoxybenzamide]: under setting [5], the class was 1 (Class 1: The value of percent of control at 10^−7 M was less than 40% or the value of IC50 was less than 50 nM.).
As to `CN(C)c1nc(N[C@H]2CC[C@@H](NC(=O)Cc3cccc4ccccc34)CC2)nc2c1CCCC2` [compound 525], the class under setting [3] is 3 (Class 3 The value of percent of control at 10^−7 M was more than 60% or the value of IC50 was more than 200 nM.).
Take `Cc1ccc([N+](=O)[O-])c(NC(=O)N[C@H]2CC[C@@H](Nc3nc4c(c(N(C)C)n3)CCCC4)CC2)c1C` [compound 1798]: the class under setting [1] is reported as 3 (Class 3 The value of percent of control at 10^−7 M was more than 60% or the value of IC50 was more than 200 nM.).
As to `COc1cccc(CC(=O)NC[C@H]2CC[C@@H](Nc3cc(N(C)C)c4ccccc4n3)CC2)c1` [compound 194], the class under setting [4] is 3 (Class 3 The value of percent of control at 10^−7 M was more than 60% or the value of IC50 was more than 200 nM.).
With `Cc1cc(C(=O)N[C@H]2CC[C@@H](CNc3ncc(C)c(N(C)C)n3)CC2)ccc1F` [compound 2718], the class under setting [5] was 2 (Class 2: The value of percent of control at 10^−7 M was from 40% to 60% or the value of IC′50 was from 50 nM to 200 nM.).
In the case of `CN(C)c1cc(N[C@H]2CC[C@@H](NC(=O)c3ccc(C(F)(F)F)c(F)c3)CC2)nc2ccccc12` [compound 772, N-(cis-4-{[4-(dimethylamino)quinolin-2-yl]amino}cyclohexyl)-3-fluoro-4-(trifluoromethyl)benzamide], the class under setting [1] was 1 (Class 1: The value of percent of control at 10^−7 M was less than 40% or the value of IC50 was less than 50 nM.).
Take `COc1ccc(C(=O)N[C@H]2CC[C@@H](CNc3nc(C)cc(N(C)C)n3)CC2)cc1` [compound 2735]: the class under setting [5] is 3 (Class 3 The value of percent of control at 10^−7 M was more than 60% or the value of IC50 was more than 200 nM.).
As for `CN(C)c1nc(N[C@H]2CC[C@@H](NCc3ccc(F)c(Cl)c3)CC2)nc2c1CCCC2` [compound 1363], under setting [1], the class is listed as 3 (Class 3 The value of percent of control at 10^−7 M was more than 60% or the value of IC50 was more than 200 nM.).
For the compound `CCc1ccc(NC(=S)N[C@H]2CC[C@@H](Nc3nc4c(c(N(C)C)n3)CCCC4)CC2)cc1` [compound 1966], under setting [4], the class is given as 3 (Class 3 The value of percent of control at 10^−7 M was more than 60% or the value of IC50 was more than 200 nM.).

The record behind these values is patent publication US20050197350A1, “Novel quinoline, tetrahydroquinazoline, and pyrimidine derivatives and methods of treatment related to the use thereof” (TAISHO PHARMACEUTICAL CO., LTD., priority 2003, published 2005).
